≈ marks a conversion by molar mass, not a printed value.
Key:
solubility = type: physicochemical
[1] = system: mouse pulmonary cancer cells (LL); test: growth-inhibitory effect on mouse pulmonary cancer cells, dye exclusion method; type: cell-based; conditions: 72 h
Procedure: The growth-inhibitory effects of the compound of the present invention on mouse pulmonary cancer cells (LL) and human plumonary cancer cells (PC-3) were examined.
A 96-well plate was inoculated with mouse pulmonary cancer cells at a ratio of 8.0 x 10² cells per well, while another 96-well plate was inoculated with human pulmonary cancer cells at a ratio of 2.5 x 10³ per well. These cells were incubated in an incubator at 37°C under 5 % CO₂ for 24 hours. Then the compound of the present invention was added thereto at various concentrations. Cells in each well were counted by the dye exclusion method three days after the addition to thereby evaluate the growth-inhibitory effect of the test compound on the mouse pulmonary cancer cells (LL) and that on the human pulmonary cancer cells (PC-3).

acute toxicity = conditions: mouse, in vivo, ip; mice
[2] = system: mouse colonic cancer cells (Colon 26); test: growth-inhibitory effect on mouse colonic cancer cells, dye exclusion method; type: cell-based
Procedure: The growth-inhibitory effects of the compound of the present invention on mouse colonic cancer cells (Colon 26) and human colonic cancer cells (SWlll6) were examined. A 96-well plate was inoculated with mouse colonic cancer cells at a ratio of 1.5 x 10³ cells per well, while another 96-well plate was inoculated with human colonic cancer cells at a ratio of 3.0 x 10³ per well. These cells were incubated in an incubator at 37°C under 5 % CO₂ for 24 hours. Then the compound of the present invention was added thereto at various concentrations. Cells in each well were counted by the dye exclusion method 65 hours and 96 hours after the addition to thereby evaluate the growth-inhibitory effect of the test compound on the mouse colonic cancer cells and that on the human colonic cancer cells.

[3] = system: mouse lung cancer (lewis lung carcinoma); test: anti-cancer action against grafted mouse lung cancer, tumor volume; type: in vivo; conditions: mouse pulmonary cancer
From the text: The anti-cancer action of the compound of the present invention against mouse lung cancer (lewis lung carcinoma) and mouse breast cancer (Ehrlich B) was examined. 1 x 10⁶ mouse lung cancer cells or mouse breast cancer cells were grafted into a subcutaneous portion of the groin of an eight week-old male BDF₁ or ICR mouse, and the compound of the present invention was intraperitoneally administered to the mouse in various concentrations every day from two days after the graft once a day for 9 days. On the second day after completion of the administration, the minor axis and the major axis of the tumor were measured, and the volume of the tumor was determined by using the following equation: (minor axis)² x […]/2 [formula] . Then, the percentage inhibition of proliferation of each tumor with respect to the compound of the present invention was determined from the ratio of the volume of the tumor on the groups of administration of the compound of the present invention relative to that on the control group.

[4] = system: mouse malignant melanoma (B16 melanotic melanoma); test: in-vivo test by intravenous administration against mouse malignant melanoma, tumor volume; parameters: species or system C57BL/6 mouse
From the text: The anti-cancer action of the compound of the present invention against mouse malignant melanoma (B16 melanotic melanoma) was examined. 5 x 10⁵ mouse malignant melanoma cells were inoculated into a subcutaneous portion of the right body side of a 6 week-old male C57BL/6 mouse, and the compound of the present invention was intravenously administered to the mouse in various concentrations every day from the next day or from 7 days after the inoculation once a day for 5 days. On the 11 days after the inoculation, the minor axis and the major axis of the tumor were measured, and the volume of the tumor was determined by using the following equation: (minor axis)² x […]/2 [formula] . Then, the percentage inhibition of proliferation of each tumor with respect to the compound of the present invention was determined from the ratio of the volume of the tumor on the groups of administration of the compound of the present invention relative to that on the control group.

[5] = system: mosquito culices (a sensitive species); test: insecticidal action, mortality rate of mosquito larvae; type: in vivo
Procedure: The insecticidal action of the compound of the present invention was examined by the following method. • (1) An imago of two-spotted spider mite acarids (a Kelthane-resistant species) was used as a test vermin, and the mortality rate thereof was assayed according to an ordinary method (described on page 327 of "Noyaku Seibutsu Kenteiho" edited by Toyoji Hosotsuji). Specifically, a solution of the compound of the present invention in acetone (0.1 %) was added to 0.5 ml of an aqueous sucrose solution (1 %) to have a predetermined concentration. Ten two-spotted spider mite acarids were released in a vessel (200-ml beaker), and the vessel was covered with a paraffin film. The agent solution prepared above was put on the paraffin film, and another praffin film was put thereon. The beaker was allowed to stand in a thermostatic chamber (20 ± 1°C) for a predetermined period of time, and the life and death of the test vermin was investigated. • (2) A larva of mosquito culices (a sensitive species) was used as a test vermin, and the mortality rate thereof was assayed according to an ordinary method (described on page 109 of "Noyaku Jikkenho I, Sacchuzaihen" published by Soft Science, Inc.). Specifically, 10 ml of well water was placed in a vessel (15-ml Schale), and 5 larvae of mosquito culices (the third stage) were released in the vessel. A solution of the compound of the present invention in acetone (0.1 %) was added thereto so as to have a predetermined concentration. The vessel was allowed to stand in a thermostatic chamber (26 ± 1°C) for a predetermined period of time, and the life and death of the test vermin was investigated.

## CCC1C=CC=CCC(C)C(O)C(C)(O)C(=O)C(C)C(O)C(C)C(=O)C(C)C(O)C(C)C=CC(=O)OC2C(C)C(CC1)OC1(OC(CC(C)O)C(C)CC1=O)C2CC (centres unmarked) [NK86-0279]
solubility; in hexane
  solubility: hardly soluble
solubility; in methanol, acetone, ethyl acetate and dimethyl sulfoxide
  solubility: soluble
solubility; in organic solvents such as methanol, acetone, ethyl acetate and ethanol
  solubility: soluble
solubility; in water
  solubility: hardly soluble
[1]; mouse pulmonary cancer cells (LL), three days after the addition, read-out: IC₅₀
  IC50: 9.8 ng/mL (≈ 0.012 µM)
[1]; Mus musculus, LL, 0.024 µg/ml, read-out: Growth-inhibitory ratio
  inhibition at 0.024 µg/mL: 30.4%
[1]; Mus musculus, LL, 0.061 µg/ml, read-out: Growth-inhibitory ratio
  inhibition at 0.061 µg/mL: -5.7%
[1]; Mus musculus, LL, 0.098 µg/ml, read-out: Growth-inhibitory ratio
  inhibition at 0.098 µg/mL: 50%
[1]; Mus musculus, LL, 0.39 µg/ml, read-out: Growth-inhibitory ratio
  inhibition at 0.39 µg/mL: 61%
[1]; Mus musculus, LL, 1.56 µg/ml, read-out: Growth-inhibitory ratio
  inhibition at 1.56 µg/mL: 92.1%
[1]; Mus musculus, LL, 6.25 µg/ml, read-out: Growth-inhibitory ratio
  inhibition at 6.25 µg/mL: 114%
[1]; Mus musculus, LL, 25 µg/ml, read-out: Growth-inhibitory ratio
  inhibition at 25 µg/mL: 110%
[1]; Mus musculus, LL, 100 µg/ml, read-out: Growth-inhibitory ratio
  inhibition at 100 µg/mL: 109%
Acute toxicity
  LD50: 1.67 mg/kg
[2]; Mus musculus, Colon 26, 0.0061 µg/ml, read-out: Growth-inhibitory ratio
  inhibition at 0.0061 µg/mL: 84.6%
[2]; Mus musculus, Colon 26, 0.024 µg/ml, read-out: Growth-inhibitory ratio
  inhibition at 0.024 µg/mL: 87.5%
[2]; Mus musculus, Colon 26, 0.098 µg/ml, read-out: Growth-inhibitory ratio
  inhibition at 0.098 µg/mL: 86.1%
[2]; Mus musculus, Colon 26, 0.39 µg/ml, read-out: Growth-inhibitory ratio
  inhibition at 0.39 µg/mL: 87.6%
[2]; Mus musculus, Colon 26, 1.56 µg/ml, read-out: Growth-inhibitory ratio
  inhibition at 1.56 µg/mL: 94.2%
[2]; Mus musculus, Colon 26, 6.25 µg/ml, read-out: Growth-inhibitory ratio
  inhibition at 6.25 µg/mL: 105%
[2]; Mus musculus, Colon 26, 25 µg/ml, read-out: Growth-inhibitory ratio
  inhibition at 25 µg/mL: 108%
[2]; Mus musculus, Colon 26, 100 µg/ml, read-out: Growth-inhibitory ratio
  inhibition at 100 µg/mL: 104%
[2]; mouse colonic cancer cells (Colon 26), read-out: IC₅₀
  IC50: < 6.1 ng/mL
[3]; 0.063 mg/kg intraperitoneally once a day for 9 days
  Growth-inhibitory ratio (tumor volume): 46.3%
[3]; 0.125 mg/kg intraperitoneally once a day for 9 days
  Growth-inhibitory ratio (tumor volume): 57.1%
[3]; 0.250 mg/kg intraperitoneally once a day for 9 days
  Growth-inhibitory ratio (tumor volume): 8.9%
[3]; 0.500 mg/kg intraperitoneally once a day for 9 days
  Growth-inhibitory ratio (tumor volume): 59.6%
[4]; 0.05 mg/kg intravenously once a day for 5 days, administered from 7 days after the inoculation
  Growth-inhibitory ratio (tumor volume): 57.4%
[4]; 0.05 mg/kg intravenously once a day for 5 days, administered from the next day of the inoculation
  Growth-inhibitory ratio (tumor volume): 57.0%
[4]; 0.10 mg/kg intravenously once a day for 5 days, administered from 7 days after the inoculation
  Growth-inhibitory ratio (tumor volume): 69.1%
[4]; 0.10 mg/kg intravenously once a day for 5 days, administered from the next day of the inoculation
  Growth-inhibitory ratio (tumor volume): 62.9%
[4]; 0.20 mg/kg intravenously once a day for 5 days, administered from 7 days after the inoculation
  Growth-inhibitory ratio (tumor volume): 76.6%
[4]; 0.20 mg/kg intravenously once a day for 5 days, administered from the next day of the inoculation
  Growth-inhibitory ratio (tumor volume): 56.9%
[4]; 0.40 mg/kg intravenously once a day for 5 days, administered from 7 days after the inoculation
  Growth-inhibitory ratio (tumor volume): 81.9%
[4]; 0.40 mg/kg intravenously once a day for 5 days, administered from the next day of the inoculation
  Growth-inhibitory ratio (tumor volume): 50.5%
[5]; 48 h, after 2 days
  mortality at 1 ppm: 0%
  mortality at 10 ppm: 100%
[5]; 144 h, 6 days
  mortality at 1 ppm: 0%
  mortality at 10 ppm: 100%
[5]; 216 h, 9 days
  mortality at 1 ppm: 0%
  mortality at 10 ppm: 100%
